In ChEMBL document CHEMBL1156755, “Discovery of (Z)-5-(4-methoxybenzylidene)thiazolidine-2,4-dione, a readily available and orally active glitazone for the treatment of concanavalin A-induced acute liver injury of BALB/c mice” (J Med Chem, 2010):
The source made the active and inactive calls. No cut-off for these calls is given here.

Legend:
RAW264.7 [1] = assay: Inhibition of MCP1-induced chemotaxis in mouse RAW264.7 cells at 25 ug/mL relative to control; assay type: functional
Mus musculus [2] = assay: Effect on serum aspartate aminotransaminase level in concanavalin A-induced acute hepatitis model of BALB/c mouse at 50 mg/kg, po treated 0.5 hrs after concanavalin A challenge measured after 20 hrs (Rvb= 4997.9 +/- 2619.6); assay type: functional
Mus musculus [3] = assay: Effect on serum alanine aminotransaminase level in concanavalin A-induced acute hepatitis model of BALB/c mouse at 50 mg/kg, po treated 0.5 hrs after concanavalin A challenge measured after 20 hrs (Rvb= 5734.5 +/- 2599.5); assay type: functional
RAW264.7 [4] = assay: Inhibition of MCP1-induced chemotaxis in mouse RAW264.7 cells; assay type: functional, cell-based
Mus musculus [5] = assay: Decrease in concanavalin A-induced hepatic cell necrosis in acute hepatitis model of BALB/c mouse at 50 mg/kg, ig treated 0.5 hrs after concanavalin A challenge measured after 20 hrs by H and E staining based histopathology study; assay type: functional, organism-based; set-up: dose 50 mg/kg
Mus musculus [6] = assay: Toxicity in BALB/c mouse assessed as pathological changes in liver at 50 mg/kg, ig after 20 hrs by H and E staining based histopathology study; assay type: organism-based; set-up: dose 50 mg/kg, route intragastric; conditions: in vivo, po
[7] = Half life in BALB/c mouse at 30 mg/kg, po; assay type: ADME, organism-based; set-up: dose 30 mg/kg, route oral; conditions: in vivo
Mus musculus [8] = assay: Toxicity in BALB/c mouse assessed as pathological changes in spleen at 50 mg/kg, ig after 20 hrs by H and E staining based histopathology study; assay type: organism-based; set-up: dose 50 mg/kg, route intragastric; conditions: in vivo, po
[9] = Oral bioavailability in BALB/c mouse at 30 mg/kg; assay type: ADME, organism-based; conditions: in vivo
Mus musculus [10] = assay: Plasma concentration in BALB/c mouse at 30 mg/kg, po; assay type: ADME, organism-based; set-up: dose 30 mg/kg, route oral; conditions: in vivo
Mus musculus [11] = assay: Toxicity in BALB/c mouse assessed as pathological changes in heart at 50 mg/kg, ig after 20 hrs by H and E staining based histopathology study; assay type: organism-based; set-up: dose 50 mg/kg, route intragastric; conditions: in vivo, po
[12] = Tmax in BALB/c mouse at 30 mg/kg, po; assay type: ADME, organism-based; set-up: dose 30 mg/kg, route oral; conditions: in vivo
Mus musculus [13] = assay: Toxicity in BALB/c mouse assessed as pathological changes in lung at 50 mg/kg, ig after 20 hrs by H and E staining based histopathology study; assay type: organism-based; set-up: dose 50 mg/kg, route intragastric; conditions: in vivo, po
Mus musculus [14] = assay: Toxicity in BALB/c mouse assessed as pathological changes in kidney at 50 mg/kg, ig after 20 hrs by H and E staining based histopathology study; assay type: organism-based; set-up: dose 50 mg/kg, route intragastric; conditions: in vivo, po
Mus musculus [15] = assay: Toxicity in BALB/c mouse liver assessed as change in transaminase level at 50 mg/kg, ig after 20 hrs by H and E staining based histopathology study; assay type: organism-based; set-up: dose 50 mg/kg, route intragastric; conditions: in vivo, po

Compound | inhibition at 25 µg/mL (RAW264.7 [1]) | further results
CN(C)c1ccc(C=C2C(=O)NC(=O)NC2=O)cc1 | 6.2% | –
N=C1NC(=O)/C(=C/c2ccc(O)cc2)S1 [MIRIN] | 4.4% | –
O=C1NC(=O)C(=Cc2ccc(O)cc2)C(=O)N1 | 4.3% | –
COc1cc(/C=C2\SC(=O)NC2=O)ccc1O | 15.8% | –
CN(C)c1ccc(/C=C2\SC(=N)NC2=O)cc1 | 14% | –
O=C1NC(=O)/C(=C/c2ccc3nccnc3c2)S1 | 36.9% | Activity (Mus musculus [2]): 1084.5 U/L; Activity (Mus musculus [3]): 1187.5 U/L; IC50 (RAW264.7 [4]): 5.31 µM
COc1cc(/C=C2\SC(=N)NC2=O)ccc1O | 19.9% | –
CN(C)c1ccc(C=C2C(=O)NC(=S)NC2=O)cc1 | 35.7% | Activity (Mus musculus [2]): 2072.8 U/L; Activity (Mus musculus [5]): Active; Activity (Mus musculus [3]): 2930.2 U/L; IC50 (RAW264.7 [4]): 7.2 µM
COc1ccc(/C=C2\SC(=N)NC2=O)cc1OC | 9.4% | –
O=C1NC(=O)C(=Cc2ccc(Cl)cc2)C(=O)N1 | 4.1% | –
O=C1NC(=S)NC(=O)C1=Cc1ccc(Br)cc1 | 4.3% | –
O=C1NC(=S)NC(=O)C1=Cc1ccccc1O | 8.9% | –
O=C1NC(=S)NC(=O)C1=Cc1ccc(O)cc1 | 14.2% | –
COc1ccc(C=C2C(=O)NC(=S)NC2=O)cc1OC | 14.2% | –
COc1ccc(C=C2C(=O)NC(=O)NC2=O)cc1OC | 14.2% | –
O=C1NC(=O)C(=Cc2cccc(O)c2)C(=O)N1 | 15% | –
N=C1NC(=O)/C(=C/c2ccccc2)S1 | 10.1% | –
CN(C)c1ccc(/C=C2\SC(=O)NC2=O)cc1 | 15.8% | –
COc1ccc(/C=C2\SC(=N)NC2=O)cc1 | 18.6% | –
N=C1NC(=O)/C(=C/c2ccc(Cl)cc2)S1 | 13% | –
COc1cc(/C=C2\NC(=O)NC2=O)ccc1O | 16.6% | –
COc1ccc(/C=C2\CC(=O)NC2=O)cc1 | 13.3% | –
COc1cc(C=C2C(=O)NC(=S)NC2=O)ccc1O | 14.4% | –
O=C1C/C(=C\c2ccc(O)cc2)C(=O)N1 | 8.4% | –
O=C1C/C(=C\c2ccc(Cl)cc2)C(=O)N1 | 17.9% | –
COc1cc(/C=C2\CC(=O)NC2=O)ccc1O | 39.5% | Activity (Mus musculus [2]): 3126.9 U/L; Activity (Mus musculus [3]): 3304.1 U/L; IC50 (RAW264.7 [4]): 20.5 µM

Compound | inhibition at 25 µg/mL (RAW264.7 [1]) | further results
O=C1NC(=O)/C(=C/c2ccc(O)cc2)S1 | 25.1% | –
O=C1NC(=O)C(=Cc2ccccc2)C(=O)N1 | 5.7% | –
COc1ccc(/C=C2\NC(=O)NC2=O)cc1 | 19.9% | –
O=C1NC(=O)/C(=C/c2ccc(Br)cc2)N1 | 14% | –
O=C1NC(=O)/C(=C/c2ccccc2)S1 | 16.9% | –
O=C1C/C(=C\c2ccc(Br)cc2)C(=O)N1 | 14.3% | –
N=C1NC(=O)/C(=C/c2ccc(Br)cc2)S1 | 16.6% | –
O=C1NC(=O)C(=Cc2ccc(Br)cc2)C(=O)N1 | 5.7% | –
CN(C)c1ccc(/C=C2\CC(=O)NC2=O)cc1 | 15.7% | –
O=C1NC(=O)/C(=C/c2ccc(O)cc2)N1 [4-HYDROXYPHENYLMETHYLENE HYDANTOIN] | 13% | –
O=C1NC(=S)NC(=O)C1=Cc1ccccc1 | 10.2% | –
O=C1NC(=S)NC(=O)C1=Cc1ccc(Cl)cc1 | 4.1% | –
COc1ccc(/C=C2\SC(=O)NC2=O)cc1OC | 16.6% | –
O=C1NC(=O)/C(=C/c2cccc(O)c2)S1 | 14.4% | –
CN(C)c1ccc(/C=C2\NC(=O)NC2=O)cc1 | 18.6% | –
COc1ccc(C=C2C(=O)NC(=S)NC2=O)cc1 | 27.4% | Activity (Mus musculus [2]): 2109.7 U/L; Activity (Mus musculus [5]): Active; Activity (Mus musculus [3]): 3141.2 U/L; IC50 (RAW264.7 [4]): 11.2 µM
COc1ccc(/C=C2\NC(=O)NC2=O)cc1OC | 8.7% | –
O=C1C/C(=C\c2ccccc2)C(=O)N1 | 5.7% | –
COc1ccc(/C=C2\SC(=O)NC2=O)cc1 | 57.8% | Activity (Mus musculus [6]): Non-toxic; half-life [7]: 3.37 h; Activity (Mus musculus [2]): 620 U/L; Activity (Mus musculus [5]): Active; Activity (Mus musculus [8]): Non-toxic; bioavailability [9]: 14.9%; Activity (Mus musculus [3]): 677.7 U/L; Cp (Mus musculus [10]): 4980 ng/mL; Activity (Mus musculus [11]): Non-toxic; IC50 (RAW264.7 [4]): 0.72 µM; Tmax [12]: 0.5 h; Activity (Mus musculus [13]): Non-toxic; Activity (Mus musculus [14]): Non-toxic; Activity (Mus musculus [15]): Non-toxic
O=C1C/C(=C\c2cccc(O)c2)C(=O)N1 | 11.4% | –
O=C1NC(=O)/C(=C/c2cccc(O)c2)N1 | 4.4% | –
COc1cc(C=C2C(=O)NC(=O)NC2=O)ccc1O | 4.1% | –
O=C1NC(=O)C(=Cc2ccccc2O)C(=O)N1 | 5.8% | –
O=C1NC(=S)NC(=O)C1=Cc1cccc(O)c1 | 5.7% | –
COc1ccc(C=C2C(=O)NC(=O)NC2=O)cc1 | 6.2% | –
O=C1NC(=O)/C(=C/c2ccc(Br)cc2)S1 | 16.9% | –
